Where a SMILES comes first, the peptide text is derived from it. Side-chain parts run from the residue outwards. The star is where a group is joined. FITC = O=C1OC2(c3ccc(O)cc3Oc3cc(O)ccc32)c2ccc(NC(=S)*)cc21; AEEA = NCCOCCOCC(=O)O

A word on the IC50: it is the point on the concentration scale where inhibition reaches its midpoint.

In the first assay the target is T1, native PRMT5–MEP50 complex (Homo sapiens, UniProt O14744+Q9BQA1).
T1 construct: Full‐length PRMT5–MEP50; 6His-MBP with 3C site (N, cleaved yes); made in house; host or cells: HighFive insect cells (flashBAC baculovirus system)
T1 sequence (O14744 whole entry): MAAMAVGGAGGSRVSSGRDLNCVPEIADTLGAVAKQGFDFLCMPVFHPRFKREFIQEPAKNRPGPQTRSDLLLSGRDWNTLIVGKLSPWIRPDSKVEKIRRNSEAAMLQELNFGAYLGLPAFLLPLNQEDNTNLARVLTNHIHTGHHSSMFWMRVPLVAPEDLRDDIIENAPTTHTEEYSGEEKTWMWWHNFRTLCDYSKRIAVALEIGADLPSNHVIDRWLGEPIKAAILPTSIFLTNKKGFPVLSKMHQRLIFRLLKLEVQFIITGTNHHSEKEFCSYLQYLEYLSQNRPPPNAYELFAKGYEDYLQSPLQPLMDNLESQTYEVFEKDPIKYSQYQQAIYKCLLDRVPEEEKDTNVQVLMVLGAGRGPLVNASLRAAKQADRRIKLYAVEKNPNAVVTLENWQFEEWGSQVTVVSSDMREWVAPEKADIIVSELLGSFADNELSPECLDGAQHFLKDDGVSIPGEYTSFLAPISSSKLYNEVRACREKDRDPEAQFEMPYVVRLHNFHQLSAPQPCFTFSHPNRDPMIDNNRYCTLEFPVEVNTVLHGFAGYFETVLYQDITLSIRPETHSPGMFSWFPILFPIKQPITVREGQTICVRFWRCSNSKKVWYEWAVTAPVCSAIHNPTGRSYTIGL
T1 sequence (Q9BQA1 whole entry partner): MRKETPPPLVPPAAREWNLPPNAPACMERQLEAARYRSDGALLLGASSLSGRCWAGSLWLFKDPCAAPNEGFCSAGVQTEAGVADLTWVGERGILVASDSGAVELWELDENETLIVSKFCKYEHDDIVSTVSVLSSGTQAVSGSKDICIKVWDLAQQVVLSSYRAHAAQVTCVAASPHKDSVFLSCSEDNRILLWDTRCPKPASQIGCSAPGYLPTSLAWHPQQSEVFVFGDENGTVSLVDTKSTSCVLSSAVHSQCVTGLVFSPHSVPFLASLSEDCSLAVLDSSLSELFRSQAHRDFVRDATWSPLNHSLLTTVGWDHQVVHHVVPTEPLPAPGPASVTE
Nature of the assay: Fluorescence polarisation direct binding assay, full-length PRMT5–MEP50. To be noted: FP using the native PRMT5–MEP50 complex; FITC peptide 1 nM; pH 8.0; 30 min, 20-21 °C; n=3; n.b. = no binding. The source says: (§1) All proteins were expressed at the Protein Chemistry Facility (PCF) based in the MPI Dortmund.
(§2) For expression of the proteins, all constructs were subcloned into pOPIN vectors. […]
(§3) Expression of full-length human RioK1 tagged with 6NHis-3C and co-expression of full-length human PRMT5 (N-terminal 6His-MBP with 3C) with MEP50 (N-terminal 6His-TRX with 3C), and of TIM barrel (1-292 aa) with MEP50 (both N-terminally tagged with His-TRX with 3C cleavage site) was done using the Flash Bac Expression System (Oxford Expression Technologies, UK) with HighFive insect cells in Gibco Sf-900 III SFM medium. The cells were harvested by centrifugation and lysed.
(§4) All proteins were purified at the PCF (MPI Dortmund).
(§5) Protein purification was performed on HisTrap FF crude 5 ml Ni-based column, followed by the on-column treatment with 6His-tagged HRV-3C PreScission protease, or in case of the SUMO-tagged TIM barrel, with 6His-tagged SUMO protease. The cleaved proteins were then further purified using gel filtration chromatography with the HiLoad 26/60 Superdex 75 or 200 prep grade column. PRMT5 -MEP50, TIM-MEP50 and TIM barrel were stored in a buffer containing 50 mM HEPES, 250 mM NaCl, 1 mM TCEP with the pH adjusted to 8.0, whereas, pICln was stored in a buffer of 20 mM phosphate, 100 mM NaCl, 5 mM TCEP and pH of 7.5, whereas RioK1 was stored in a buffer of 50 mM Tris, 200 mM NaCl, 10% glycerol, 1 […]
(§6) Protein Labelling with Alexa 488
(§7) To a protein solution (ca. 1 mg/ml) in 0.2 M bicarbonate buffer with 1 mM TCEP at pH 8.3, was added 10 mM Alexa 488 NHS-ester in DMSO (8 equiv), and the mixture was kept on ice, in darkness, overnight. The protein was washed eight times with buffer (50 mM HEPES, 250 mM NaCl, 1 mM TCEP, 8.0 pH) using an Amicon® Ultra-0.5 mL spin filter. Protein concentration was then determined using the NanoDrop […]
Fluorescence Polarisation (FP)
The assay was performed in a buffer of 50 mM HEPES, 250 mM NaCl, 1 mM TCEP, 0.01% (v/v) Tween 20, pH 8.0, in black, 384 well-plates, with a total volume of 10 μl per well. The analysed, FITC labelled peptides, or Alexa488-labelled pICln or RioK1, were tested at a final concentration of 1 nM, and the appropriate unlabelled protein was titrated as two-fold dilution series. The plates were incubated at 20-21 °C for 30 min in case of FITC -labelled peptides or 1-2h in case of the Alexa488-labelled protein, and analysed on a plate reader using 485 nm excitation and 535 nm emission wavelength. The assay was performed in […]
Take “Fitc‐O2Oc‐SRVVPGQF‐NH2 [compound 6, C-terminally truncated RioK1 derived Fitc-labelled peptide]”: the “K D (Table 2, peptides 1–16)” value is “n.b”.

As for “Fitc‐O2Oc‐TPTVAGQF‐NH2 [compound 14, C-terminally truncated pICln derived Fitc-labelled peptide]”, the “K D (Table 2, peptides 1–16)” value is reported as “n.b”.

Take “Ac‐FDDADK(O2Oc‐Fitc)‐NH2 [compound 10, N-terminally truncated, C-terminally labelled RioK1 derived peptide]”: the “K D (Table 2, peptides 1–16)” value is “n.b”.

The assay is the same for the next values; noted with them: FP using the native PRMT5–MEP50 complex; FITC peptide 1 nM; pH 8.0; 30 min, 20-21 °C; n=3; n.b. = no binding; read-out: K D (Table 2, peptides 1–16).
`CC(C)[C@H](NC(=O)COCCOCCNC(=S)Nc1ccc2c(c1)C(=O)OC21c2ccc(O)cc2Oc2cc(O)ccc21)C(=O)N[C@@H](CC(=O)O)C(=O)N[C@H](C(=O)N[C@H](C(=O)N1CCC[C@H]1C(=O)N[C@H](C(=O)N[C@H](C(=O)N[C@@H](C)C(=O)NCC(=O)N[C@@H](CCC(N)=O)C(=O)N[C@@H](Cc1ccccc1)C(=O)N[C@@H](CCC(=O)O)C(=O)N[C@@H](CC(=O)O)C(=O)N[C@@H](C)C(=O)N[C@@H](CC(=O)O)C(N)=O)C(C)C)[C@@H](C)O)[C@@H](C)O)[C@@H](C)O` [compound 16] ({FITC-AEEA}-VDTTPTVAGQFEDAD-NH2): the Kd was found to be 2.38 ± 0.817 µM.

In the case of `CC(C)[C@H](NC(=O)[C@H](CCCNC(=N)N)NC(=O)[C@H](CO)NC(=O)COCCOCCNC(=S)Nc1ccc2c(c1)C(=O)OC21c2ccc(O)cc2Oc2cc(O)ccc21)C(=O)N[C@H](C(=O)N1CCC[C@H]1C(=O)NCC(=O)N[C@@H](CCC(N)=O)C(=O)N[C@@H](Cc1ccccc1)C(=O)N[C@@H](CC(=O)O)C(=O)N[C@@H](CC(=O)O)C(=O)N[C@@H](C)C(=O)N[C@@H](CC(=O)O)C(=O)N[C@@H](CO)C(=O)N[C@@H](CO)C(=O)N[C@@H](CC(=O)O)C(N)=O)C(C)C` [compound 11] ({FITC-AEEA}-SRVVPGQFDDADSSD-NH2), the Kd came out at 0.295 ± 0.011 µM.

For `CC(=O)N[C@H](C(=O)N1CCC[C@H]1C(=O)NCC(=O)N[C@@H](CCC(N)=O)C(=O)N[C@@H](Cc1ccccc1)C(=O)N[C@@H](CC(=O)O)C(=O)N[C@@H](CC(=O)O)C(=O)N[C@@H](C)C(=O)N[C@@H](CC(=O)O)C(=O)N[C@@H](CCCCNC(=O)COCCOCCNC(=S)Nc1ccc2c(c1)C(=O)OC21c2ccc(O)cc2Oc2cc(O)ccc21)C(N)=O)C(C)C` [compound 8] (Ac-VPGQFDDADK([AEEA-FITC])-NH2), the Kd is 0.208 ± 0.074 µM.

As for `CSCC[C@H](NC(=O)[C@H](CC(C)C)NC(=O)[C@H](CC(C)C)NC(=O)COCCOCCNC(=S)Nc1ccc2c(c1)C(=O)OC21c2ccc(O)cc2Oc2cc(O)ccc21)C(=O)N[C@@H](CO)C(=O)N[C@@H](CCCNC(=N)N)C(=O)N[C@H](C(=O)N[C@H](C(=O)N1CCC[C@H]1C(=O)NCC(=O)N[C@@H](CCC(N)=O)C(=O)N[C@@H](Cc1ccccc1)C(=O)N[C@@H](CC(=O)O)C(=O)N[C@@H](CC(=O)O)C(=O)N[C@@H](C)C(=O)N[C@@H](CC(=O)O)C(N)=O)C(C)C)C(C)C` [compound 12] ({FITC-AEEA}-LLMSRVVPGQFDDAD-NH2), the Kd is 0.192 ± 0.026 µM.

Take `CC(C)[C@H](NC(=O)[C@H](CC(=O)O)NC(=O)[C@H](C)NC(=O)[C@H](CC(=O)O)NC(=O)[C@H](CCC(=O)O)NC(=O)[C@H](Cc1ccccc1)NC(=O)[C@H](CCC(N)=O)NC(=O)CNC(=O)[C@H](C)NC(=O)[C@@H](NC(=O)[C@@H](NC(=O)[C@@H]1CCCN1C(=O)[C@@H](NC(=O)COCCOCCNC(=S)Nc1ccc2c(c1)C(=O)OC21c2ccc(O)cc2Oc2cc(O)ccc21)[C@@H](C)O)[C@@H](C)O)C(C)C)C(=O)N[C@@H](CC(=O)O)C(=O)N[C@@H](Cc1c[nH]cn1)C(N)=O` [compound 15] ({FITC-AEEA}-TPTVAGQFEDADVDH-NH2): the Kd was 0.52 ± 0.04 µM.

As for `CC(=O)N[C@@H](CO)C(=O)N[C@@H](CCCNC(=N)N)C(=O)N[C@H](C(=O)N[C@H](C(=O)N1CCC[C@H]1C(=O)NCC(=O)N[C@@H](CCC(N)=O)C(=O)N[C@@H](Cc1ccccc1)C(=O)N[C@@H](CC(=O)O)C(=O)N[C@@H](CC(=O)O)C(=O)N[C@@H](C)C(=O)N[C@@H](CC(=O)O)C(=O)N[C@@H](CCCCNC(=O)COCCOCCNC(=S)Nc1ccc2c(c1)C(=O)OC21c2ccc(O)cc2Oc2cc(O)ccc21)C(N)=O)C(C)C)C(C)C` [compound 7] (Ac-SRVVPGQFDDADK([AEEA-FITC])-NH2), the Kd was found to be 0.716 ± 0.036 µM.

For the compound `CC(=O)NCC(=O)N[C@@H](CCC(N)=O)C(=O)N[C@@H](Cc1ccccc1)C(=O)N[C@@H](CC(=O)O)C(=O)N[C@@H](CC(=O)O)C(=O)N[C@@H](C)C(=O)N[C@@H](CC(=O)O)C(=O)N[C@@H](CCCCNC(=O)COCCOCCNC(=S)Nc1ccc2c(c1)C(=O)OC21c2ccc(O)cc2Oc2cc(O)ccc21)C(N)=O` [compound 9] (Ac-GQFDDADK([AEEA-FITC])-NH2), the Kd is more than 5 µM.

`CC(C)[C@H](NC(=O)[C@H](CCCNC(=N)N)NC(=O)[C@H](CO)NC(=O)COCCOCCNC(=S)Nc1ccc2c(c1)C(=O)OC21c2ccc(O)cc2Oc2cc(O)ccc21)C(=O)N[C@H](C(=O)N1CCC[C@H]1C(=O)NCC(=O)N[C@@H](CCC(N)=O)C(=O)N[C@@H](Cc1ccccc1)C(=O)N[C@@H](CC(=O)O)C(=O)N[C@@H](CC(=O)O)C(N)=O)C(C)C` [compound 5] ({FITC-AEEA}-SRVVPGQFDD-NH2): the Kd is more than 5 µM.

`CSCC[C@H](NC(=O)[C@H](CC(C)C)NC(=O)[C@H](CC(C)C)NC(=O)COCCOCCNC(=S)Nc1ccc2c(c1)C(=O)OC21c2ccc(O)cc2Oc2cc(O)ccc21)C(=O)N[C@@H](CO)C(=O)N[C@@H](CCCNC(=N)N)C(=O)N[C@H](C(=O)N[C@H](C(=O)N1CCC[C@H]1C(=O)NCC(=O)N[C@@H](CCC(N)=O)C(=O)N[C@@H](Cc1ccccc1)C(=O)N[C@@H](CC(=O)O)C(=O)N[C@@H](CC(=O)O)C(=O)N[C@@H](C)C(=O)N[C@@H](CC(=O)O)C(=O)N[C@@H](CO)C(=O)N[C@@H](CO)C(=O)N[C@@H](CC(=O)O)C(N)=O)C(C)C)C(C)C` [compound 13] ({FITC-AEEA}-LLMSRVVPGQFDDADSSD-NH2): the Kd worked out at 0.279 ± 0.041 µM.

Another assay has as its target T1, native PRMT5–MEP50 complex. As to the kind of experiment: Competitive fluorescence polarisation binding assay with compound 11 as tracer. To be noted: competitive FP; tracer compound 11 at 1 nM, PRMT5-MEP50 600 nM, unlabelled peptide titrated two-fold; pH 8.0; 30 min, 20-21 °C; n=3.
Description: as §1, §2, §3, §4, §5, §6, §7
Competitive Binding Assay
The competitive binding assay was performed in a buffer of 50 mM HEPES, 250 mM NaCl, 1 mM TCEP, 0.01% (v/v) Tween 20, 8.0 pH, in black, 384 well-plates, with a total volume of 10 μl per well. The FITC labelled peptides were added at the final concentration of 1 nM, were mixed with PRMT5-MEP50 (at the final concentration of 600 nM), and the appropriate non-labelled peptide was titrated as two-fold dilution series. The plates were incubated at 20-21 °C for 30 min and analysed on a plate reader using 485 nm excitation and 535 nm emission wavelength. The experiment was performed in triplicates.
On the technique in general: In fluorescence polarisation assays a small probe gives low polarisation when free and higher when bound to something large.
Ac-SRVVPGAFDDAD-NH2 [compound 31]: the IC50 was more than 300 µM.

Turning to Ac-SRVVPGQFDAAD-NH2 [compound 28], the IC50 was determined as 97 ± 17 µM.

Regarding Ac-MVFETGQFDDAED-NH2 [compound 25], the half-inhibitory concentration (IC50) stood at 3.4 ± 0.2 µM.

On to Ac-SRVVPGQFDDADSSD-NH2 [compound 23], for which the IC50 came to 1.5 ± 0.4 µM.

Take Ac-SRVVAGQFDDAD-NH2 [compound 33]: the half-maximal inhibitory concentration (IC50) was 9.9 ± 2.2 µM.

With Ac-SRVAPGQFDDAD-NH2 [compound 34], the half-inhibitory concentration (IC50) stood at 14 ± 3.4 µM.

For the compound Ac-ARVVPGQFDDAD-NH2 [compound 37], the IC50 turned out to be 0.9 ± 0.2 µM.

Take Ac-TPTVAGQFEDAD-NH2 [compound 24]: the IC50 turned out to be 14.6 ± 0.9 µM.

On to Ac-SRVVPGQFDDAA-NH2 [compound 27], for which the IC50 turned out to be 6.2 ± 2.2 µM.

In the case of Ac-SRVVPAQFDDAD-NH2 [compound 32], the IC50 stood at 39 ± 8.5 µM.

In the case of Ac-SRVVPGQFADAD-NH2 [compound 29], the IC50 is 6.4 ± 0.3 µM.

Consider Ac-SRAVPGQFDDAD-NH2 [compound 35], for which the half-inhibitory concentration (IC50) turned out to be 4.8 ± 0.7 µM.

For the compound Ac-SRVVPGQADDAD-NH2 [compound 30], the IC50 is more than 300 µM.

With Ac-SAVVPGQFDDAD-NH2 [compound 36], the IC50 was 2.8 ± 0.5 µM.

With Ac-SRVVPGQFDDAD-NH2 [compound 26], the concentration for half-maximal inhibition (IC50) amounted to 6 ± 0.7 µM.

Values taken from paper PMC8252068, “Biochemical Investigation of the Interaction of pICln, RioK1 and COPR5 with the PRMT5–MEP50 Complex” (Chembiochem, 2021).
